{"source": "paper PMC13070491", "about": "“Single-nucleus transcriptomics, pharmacokinetics, and pharmacodynamics of CDK4/6 and mTOR inhibition in a Phase 0/1 trial of recurrent high-grade glioma” (Neuro-Oncology, 2025)", "key": {"[1]": {"system": "pRb", "assay": "IHC of tumor tissue, pRb positive cells, archival vs Phase 0 surgical sample", "format": "in vivo, human", "details": "IDH-wildtype patients n = 20; paired t-test P = .25; 5 days ribociclib + everolimus"}, "[2]": {"system": "p4EBP1", "assay": "IHC of tumor tissue, p4EBP1 positive cells", "format": "in vivo, human", "details": "5 days ribociclib + everolimus; paired t-test P > .05", "protocol": "(§1) Everolimus pharmacodynamic biomarkers were assessed using IHC with the following antibodies: anti-p4EBP1 (Cell Signaling Technology; #2855, 1:500); anti-pS6 ribosomal protein (Cell Signaling -Technology; #4858, 1:100). IHC staining was performed using the BOND RX automated system (Leica Biosystems) as previously described.[8] Stained slides were imaged on a Leica Versa microscope and analyzed with Aperio Image software. Percentage of stain-positive cells was quantified from at least 6 randomly selected regions of interest within the tumor as assessed by a board-certified neuropathologist."}, "[3]": {"system": "pS6 ribosomal protein", "assay": "IHC of tumor tissue, pS6 ribosomal protein positive cells", "format": "in vivo, human", "details": "5 days ribociclib + everolimus; paired t-test P > .05", "protocol": "as §1"}, "[4]": {"system": "phosphorylated Rb protein in GB126, GB86 and GB239 glioma stem cell lines", "assay": "Determination of ribociclib dose in vitro (phosphorylated Rb, Western blotting)", "format": "cell-based, human", "details": "5 days, tested 0.5, 1 and 5 μM", "protocol": "Patient-derived glioma stem cell lines (GSCs; GB126, GB86, and GB239) were established from resected GBM tumor tissue. Cell lines were genetically profiled for mutations and copy number aberrations using the IvySeq custom gene panel. […] GB239 was derived from a tumor sample included in this Phase 0 trial (tumor sample: 100-0039). All human GSCs were cultured as described previously.[12]"}, "[5]": {"system": "GB126", "assay": "Ribociclib-treated in vitro single-cell RNA sequencing, malignant state proportions", "format": "cell-based, human", "details": "ribociclib vs DMSO 5 days", "from_the_text": "(§2) Patient-derived glioma stem cell lines (GSCs; GB126, GB86, and GB239) were established from resected GBM tumor tissue. Cell lines were genetically profiled for mutations and copy number aberrations using the […] custom gene panel. All cell lines harbored high-level CDK4 amplifications among other alterations. […] The single-cell RNA sequencing data were then processed via cellranger count and Seurat. Briefly, cells were filtered out based on the following criteria: minimum number of genes detected >500 and <10 000 with a maximum percentage of mitochondrial genes set to 10%. Statistical assessment was made between the malignant proportions of each cell state using a 2-sided paired t-test."}, "[6]": {"system": "GB239", "assay": "Ribociclib-treated in vitro single-cell RNA sequencing, malignant state proportions", "format": "cell-based, human", "details": "ribociclib vs DMSO 5 days", "from_the_text": "as §2"}, "[7]": {"system": "GB86", "assay": "Ribociclib-treated in vitro single-cell RNA sequencing, malignant state proportions", "format": "cell-based, human", "details": "ribociclib vs DMSO 5 days", "from_the_text": "as §2"}, "[8]": {"details": "900 mg QD 5 days monotherapy; ref Tien A, Clin Cancer Res 2019; cited from earlier work"}, "[9]": {"system": "CDK4/6", "details": "threshold basis for Phase 1 expansion; no reference given; read-out: biochemical IC50; cited from earlier work"}}, "data": [{"smiles": "CN(C)C(=O)c1cc2cnc(Nc3ccc(N4CCNCC4)cn3)nc2n1C1CCCC1", "note": "[Ribociclib, ribociclib]", "values": [{"measurement": "change in phosphorylated Rb, surgical samples vs matched archival tissue", "setting": "[1]", "value": "nonsignificant decrease"}, {"measurement": "mTOR pathway activity as quantified by p4EBP1, surgical specimen vs archival tissue", "setting": "[2]", "value": "elevated but not significantly different"}, {"measurement": "mTOR pathway activity as quantified by pS6, surgical specimen vs archival tissue", "setting": "[3]", "value": "elevated but not significantly different"}, {"measurement": "dose per cell line that achieved a 50% inhibition of pRb", "setting": "[4]", "value": "0.5-5 µM"}, {"measurement": "MES-like malignant state proportion", "setting": "[5]", "value": "increase"}, {"measurement": "AC-like malignant state proportion", "setting": "[5]; paired t-test P = 6.6E-3", "value": "increase"}, {"measurement": "change in cycling cells", "setting": "[5]; paired t-test P = 8.7E-4", "value": "decrease"}, {"measurement": "change in cycling cells", "setting": "[6]; paired t-test P = 5.4E-4", "value": "decrease"}, {"measurement": "AC-like malignant state proportion", "setting": "[6]; paired t-test P = .03", "value": "increase"}, {"measurement": "change in cycling cells", "setting": "[7]; paired t-test P = .04", "value": "decrease"}, {"measurement": "AC-like malignant state proportion", "setting": "[7]; paired t-test P = .06", "value": "increase"}, {"measurement": "Total Ribociclib concentration, CSF, Maximum", "setting": "[8]", "value": 838, "unit": "nM"}, {"measurement": "Total Ribociclib concentration, CSF, Median", "setting": "[8]", "value": 267, "unit": "nM"}, {"measurement": "Total Ribociclib concentration, CSF, Minimum", "setting": "[8]", "value": 43, "unit": "nM"}, {"measurement": "Total Ribociclib concentration, Enhancing tumor, Maximum", "setting": "[8]", "value": 71.76, "unit": "µM"}, {"measurement": "Total Ribociclib concentration, Enhancing tumor, Median", "setting": "[8]", "value": 29.252, "unit": "µM"}, {"measurement": "Total Ribociclib concentration, Enhancing tumor, Minimum", "setting": "[8]", "value": 6.586, "unit": "µM"}, {"measurement": "Total Ribociclib concentration, Non-enhancing tumor, Maximum", "setting": "[8]", "value": 31.424, "unit": "µM"}, {"measurement": "Total Ribociclib concentration, Non-enhancing tumor, Median", "setting": "[8]", "value": 12.176, "unit": "µM"}, {"measurement": "Total Ribociclib concentration, Non-enhancing tumor, Minimum", "setting": "[8]", "value": 452, "unit": "nM"}, {"measurement": "Unbound Ribociclib concentration, CSF, Maximum", "setting": "[8]", "value": 645, "unit": "nM"}, {"measurement": "Unbound Ribociclib concentration, CSF, Median", "setting": "[8]", "value": 152, "unit": "nM"}, {"measurement": "Unbound Ribociclib concentration, CSF, Minimum", "setting": "[8]", "value": 18, "unit": "nM"}, {"measurement": "Unbound Ribociclib concentration, Enhancing tumor, Maximum", "setting": "[8]", "value": 4.743, "unit": "µM"}, {"measurement": "Unbound Ribociclib concentration, Enhancing tumor, Median", "setting": "[8]", "value": 1644, "unit": "nM"}, {"measurement": "Unbound Ribociclib concentration, Enhancing tumor, Minimum", "setting": "[8]", "value": 307, "unit": "nM"}, {"measurement": "Unbound Ribociclib concentration, Non-enhancing tumor, Maximum", "setting": "[8]", "value": 1295, "unit": "nM"}, {"measurement": "Unbound Ribociclib concentration, Non-enhancing tumor, Median", "setting": "[8]", "value": 482, "unit": "nM"}, {"measurement": "IC50", "setting": "[9]", "value": 0.04, "unit": "µM"}]}]}
